These results are taken from patent US7935507B2, “Method for testing substances on biomatrices” (Humanautocell GmbH, priority 2004, dated 2011).

The test system of the data set is CYP2E1. The conditions noted are these: tissue equivalent strips (hepatocytes + Langerhan's islet cells on matrix) in William's medium E, 37° C.; benzene 0.005, 0.01, 0.02, 0.05 and 0.1 mM, several hours; compared with basic activity before addition.

Experimental: The strips are placed in approximately 1 liter of William's medium E, which is agitated. Adequate gas exchange is ensured, and the temperature of the medium is maintained at 37° C.
After the system has equilibrated, a first strip of tissue equivalent is removed and the CYP2E1 activity thereon is determined via the EFCOD test method. Using the said method, the CYP2E1mediated O-dealkylation of 7-ethoxy-4-trifluoromethylcoumarin to 7-hydroxy-4-trifluoromethylcoumarin is determined.
The benzene is allowed to act for several hours, while maintaining the medium in agitation and ensuring the gas exchange. Then the CYP2E1 activity is determined once again in the way described in the foregoing.

Regarding `c1ccccc1` [benzene], the “CYP2E1 activity (O-dealkylation of 7-ethoxy-4-trifluoromethylcoumarin to 7-hydroxy-4-trifluoromethylcoumarin)” value is reported as “distinct increase of the basic activity with increasing benzene concentration”.
